Results reported in PubChem BioAssay AID216 (DTP/NCI, 2004).
Several values for one entry are separate records, joined by “and”; a condition that tells them apart may be missing. Equal entries are not always repeated. Inconclusive results and toxic doses are left out.

System: BDF1 mice, P288 leukemia ip, survival T/C
Test: NCI In Vivo Anticancer Drug Screen. Data for tumor model P288 Lymphocytic Leukemia (intraperitoneal) in B6D2F1 (BDF1) mice
Details: endpoint: survival time, mean or median, higher = longer survival
Method: The antitumor activity of compounds was measured in mice bearing transplantable tumors. Survival or tumor size were measured and the results are expressed as the measurement made in the treated group (T) divided by the measurement made in the vehicle treated control group (C). The tumor model used in this assay is P288 Lymphocytic Leukemia (intraperitoneal) in B6D2F1 (BDF1) mice

[1] = dose: 25.0 mg/kg/injection, schedule: Q01DX010 (ip), vehicle: saline
[2] = dose: 50.0 mg/kg/injection, schedule: Q01DX010 (ip), vehicle: saline
[3] = dose: 100.0 mg/kg/injection, schedule: Q01DX010 (ip), vehicle: saline
[4] = dose: 200.0 mg/kg/injection, schedule: Q01DX010 (ip), vehicle: saline
[5] = dose: 400.0 mg/kg/injection, schedule: Q01DX010 (ip), vehicle: saline

`O=c1cn[nH]c(=O)[nH]1` was tested, and the T/C (dose: 5.0 mg/kg/injection, schedule: Q01DX Z (ip), vehicle: carboxymethylcellulose (CMC)) was 113 % of control, the T/C (dose: 10.0 mg/kg/injection, schedule: Q01DX Z (ip), vehicle: carboxymethylcellulose (CMC)) was 101 % of control and the T/C (dose: 20.0 mg/kg/injection, schedule: Q01DX Z (ip), vehicle: carboxymethylcellulose (CMC)) was 113 % of control. The T/C (dose: 125.0 mg/kg/injection, schedule: Q01DX Z (ip), vehicle: carboxymethylcellulose (CMC)) was 104 % of control, the T/C (dose: 250.0 mg/kg/injection, schedule: Q01DX Z (ip), vehicle: carboxymethylcellulose (CMC)) was 108 % of control and 93 % of control and the T/C (dose: 500.0 mg/kg/injection, schedule: Q01DX Z (ip), vehicle: carboxymethylcellulose (CMC)) was 106 % of control. For the same compound, the T/C (dose: 1000.0 mg/kg/injection, schedule: Q01DX Z (ip), vehicle: carboxymethylcellulose (CMC)) was 118 % of control.

`CS(=O)(=O)OCC(O)C(O)C(O)C(O)COS(C)(=O)=O` (stereo not given) was tested, and the T/C [1] was 100 % of control, the T/C [2] was 114 % of control and 94 % of control and the T/C [3] was 111 % of control and 100 % of control. The T/C [4] was 105 % of control and 100 % of control and the T/C [5] was 114 % of control.

For `CC(=O)O[C@]1(C(C)=O)CC[C@H]2[C@@H]3C[C@H](C)C4=CC(=O)C=C[C@]4(C)[C@@]3(F)[C@@H](O)C[C@@]21C`, the T/C (dose: 2.5 mg/kg/injection, schedule: Q01DX Z (sc), vehicle: steriod suspending solution) was 95 % of control, the T/C (dose: 5.0 mg/kg/injection, schedule: Q01DX Z (sc), vehicle: steriod suspending solution) was 97 % of control and the T/C (dose: 10.0 mg/kg/injection, schedule: Q01DX Z (sc), vehicle: steriod suspending solution) was 101 % of control. The T/C (dose: 12.5 mg/kg/injection, schedule: Q01DX010 (sc), vehicle: steriod suspending solution) was 100 % of control, the T/C (dose: 20.0 mg/kg/injection, schedule: Q01DX Z (sc), vehicle: steriod suspending solution) was 107 % of control and the T/C (dose: 25.0 mg/kg/injection, schedule: Q01DX010 (sc), vehicle: steriod suspending solution) was 106 % of control. The T/C (dose: 40.0 mg/kg/injection, schedule: Q01DX Z (sc), vehicle: steriod suspending solution) was 118 % of control, the T/C (dose: 50.0 mg/kg/injection, schedule: Q01DX010 (sc), vehicle: steriod suspending solution) was 112 % of control and the T/C (dose: 80.0 mg/kg/injection, schedule: Q01DX Z (sc), vehicle: steriod suspending solution) was 100 % of control. For the same compound, the T/C (dose: 100.0 mg/kg/injection, schedule: Q01DX010 (sc), vehicle: steriod suspending solution) was 93 % of control and the T/C (dose: 160.0 mg/kg/injection, schedule: Q01DX Z (sc), vehicle: steriod suspending solution) was 90 % of control.

For `CC(=O)N(C)C`, the T/C (dose: 31.0 mg/kg/injection, schedule: Q01DX Z (ip), vehicle: saline) was 103 % of control, the T/C (dose: 125.0 mg/kg/injection, schedule: Q01DX Z (ip), vehicle: saline) was 100 % of control and the T/C (dose: 250.0 mg/kg/injection, schedule: Q01DX Z (ip), vehicle: saline) was 93 % of control. For the same compound, the T/C (dose: 500.0 mg/kg/injection, schedule: Q01DX Z (ip), vehicle: saline) was 88 % of control and the T/C (dose: 2000.0 mg/kg/injection, schedule: Q01DX Z (ip), vehicle: saline) was 88 % of control.

For `C[N+](C)(C)c1ncnc2nc[nH]c12`, the T/C (dose: 0.4 mg/kg/injection, schedule: Q01DX Z (ip), vehicle: carboxymethylcellulose (CMC)) was 98 % of control, the T/C (dose: 0.8 mg/kg/injection, schedule: Q01DX Z (ip), vehicle: carboxymethylcellulose (CMC)) was 94 % of control and the T/C (dose: 1.6 mg/kg/injection, schedule: Q01DX Z (ip), vehicle: carboxymethylcellulose (CMC)) was 98 % of control. The T/C (dose: 3.1 mg/kg/injection, schedule: Q01DX Z (ip), vehicle: carboxymethylcellulose (CMC)) was 98 % of control, the T/C (dose: 15.0 mg/kg/injection, schedule: Q01DX010 (ip), vehicle: saline) was 88 % of control and 100 % of control and the T/C (dose: 30.0 mg/kg/injection, schedule: Q01DX010 (ip), vehicle: saline) was 100 % of control. For the same compound, the T/C (dose: 60.0 mg/kg/injection, schedule: Q01DX010 (ip), vehicle: saline) was 100 % of control and the T/C (dose: 120.0 mg/kg/injection, schedule: Q01DX010 (ip), vehicle: saline) was 100 % of control.

With `CCOC(N)=O` the T/C (dose: 125.0 mg/kg/injection, schedule: Q01DX010 (ip), vehicle: saline) was 110 % of control and 94 % of control, the T/C (dose: 250.0 mg/kg/injection, schedule: Q01DX010 (ip), vehicle: saline) was 94 % of control and the T/C (dose: 500.0 mg/kg/injection, schedule: Q01DX010 (ip), vehicle: saline) was 94 % of control.

In the case of `COc1cc(-c2ccc(Nc3ccccc3C(=O)O)c(OC)c2)ccc1Nc1ccccc1C(=O)O`, the T/C [1] is reported as 116 % of control, the T/C [3] is reported as 155 % of control and the T/C [4] is reported as 161 % of control.

In the case of `O=C1C(NC(=O)C2CCCCC2)=C(N2CC2)C(=O)C(NC(=O)C2CCCCC2)=C1N1CC1`, the T/C (dose: 18.8 mg/kg/injection, schedule: Q01DX Z (ip), vehicle: carboxymethylcellulose (CMC)) is reported as 93 % of control, the T/C [1] is reported as 100 % of control and the T/C (dose: 37.5 mg/kg/injection, schedule: Q01DX Z (ip), vehicle: carboxymethylcellulose (CMC)) is reported as 96 % of control. The T/C [2] was 94 % of control, the T/C (dose: 75.0 mg/kg/injection, schedule: Q01DX Z (ip), vehicle: carboxymethylcellulose (CMC)) was 107 % of control and the T/C [3] was 88 % of control. For the same compound, the T/C (dose: 150.0 mg/kg/injection, schedule: Q01DX Z (ip), vehicle: carboxymethylcellulose (CMC)) was 100 % of control, the T/C [4] was 100 % of control and the T/C (dose: 300.0 mg/kg/injection, schedule: Q01DX Z (ip), vehicle: carboxymethylcellulose (CMC)) was 112 % of control. The T/C (dose: 600.0 mg/kg/injection, schedule: Q01DX Z (ip), vehicle: carboxymethylcellulose (CMC)) was 105 % of control and 120 % of control and the T/C (dose: 1200.0 mg/kg/injection, schedule: Q01DX Z (ip), vehicle: carboxymethylcellulose (CMC)) was 86 % of control.

In the case of `Cc1cc2nc3c(=O)[nH]c(=O)nc-3n(CC(O)C(O)C(O)C(O)CO)c2cc1C` (stereo not given), the T/C [1] is reported as 100 % of control, the T/C [2] is reported as 118 % of control and the T/C [3] is reported as 106 % of control and 94 % of control. The T/C [4] was 106 % of control and 94 % of control and the T/C [5] was 112 % of control.

With `CS(=O)(=O)OCCN(CCOS(C)(=O)=O)c1ccc(N=O)cc1` the T/C (dose: 0.5 mg/kg/injection, schedule: Q01DX010 (ip), vehicle: saline) was 121 % of control and the T/C (dose: 2.0 mg/kg/injection, schedule: Q01DX010 (ip), vehicle: saline) was 90 % of control and 94 % of control.

In the case of `N=C(N)c1ccc(Nc2ccc(C(=N)N)cc2)cc1`, the T/C (dose: 1.6 mg/kg/injection, schedule: Q01DX Z (ip), vehicle: methylcellulose (MC)) is reported as 86 % of control, the T/C (dose: 3.0 mg/kg/injection, schedule: Q01DX010 (ip), vehicle: saline) is reported as 100 % of control and the T/C (dose: 6.0 mg/kg/injection, schedule: Q01DX010 (ip), vehicle: saline) is reported as 106 % of control. The T/C (dose: 6.25 mg/kg/injection, schedule: Q01DX Z (ip), vehicle: methylcellulose (MC)) was 88 % of control, the T/C (dose: 6.3 mg/kg/injection, schedule: Q01DX Z (ip), vehicle: methylcellulose (MC)) was 90 % of control and the T/C (dose: 12.0 mg/kg/injection, schedule: Q01DX010 (ip), vehicle: saline) was 100 % of control. The T/C (dose: 12.5 mg/kg/injection, schedule: Q01DX Z (ip), vehicle: methylcellulose (MC)) was 115 % of control, the T/C (dose: 24.0 mg/kg/injection, schedule: Q01DX010 (ip), vehicle: saline) was 87 % of control and the T/C (dose: 25.0 mg/kg/injection, schedule: Q01DX Z (ip), vehicle: methylcellulose (MC)) was 87 % of control.

In the case of `N#Cc1cn(C2OC(CO)C(O)C2O)c2ncnc(N)c12` (stereo not given), the T/C (dose: 0.12 mg/kg/injection, schedule: Q01DX Z (ip), vehicle: carboxymethylcellulose (CMC)) is reported as 114 % of control, the T/C (dose: 0.25 mg/kg/injection, schedule: Q01DX Z (ip), vehicle: carboxymethylcellulose (CMC)) is reported as 106 % of control and the T/C (dose: 0.5 mg/kg/injection, schedule: Q01DX Z (ip), vehicle: carboxymethylcellulose (CMC)) is reported as 93 % of control. The T/C (dose: 1.0 mg/kg/injection, schedule: Q01DX Z (ip), vehicle: carboxymethylcellulose (CMC)) was 106 % of control, the T/C (dose: 8.0 micrograms/kg/injection, schedule: Q01DX Z (ip), vehicle: carboxymethylcellulose (CMC)) was 103 % of control and the T/C (dose: 16.0 micrograms/kg/injection, schedule: Q01DX Z (ip), vehicle: carboxymethylcellulose (CMC)) was 103 % of control. For the same compound, the T/C (dose: 31.0 micrograms/kg/injection, schedule: Q01DX Z (ip), vehicle: carboxymethylcellulose (CMC)) was 97 % of control, the T/C (dose: 31.3 micrograms/kg/injection, schedule: Q01DX010 (ip), vehicle: saline) was 155 % of control and the T/C (dose: 62.5 micrograms/kg/injection, schedule: Q01DX010 (ip), vehicle: saline) was 105 % of control. For the same compound, the T/C (dose: 125.0 micrograms/kg/injection, schedule: Q01DX010 (ip), vehicle: saline) was 105 % of control and the T/C (dose: 250.0 micrograms/kg/injection, schedule: Q01DX010 (ip), vehicle: saline) was 105 % of control.
